Experiment: in vitro
Settings: human, liver microsomes

Row | SMILES | CLint scaled (CL) [mL/min/kg] | CLint scaled [mL/min/kg]
1 | O=C1CC2(CCCC2)CC(=O)N1CCCCN1CCN(c2ncccn2)CC1 [BUSPIRONE] | 148 | 
2 | c1cc(C2CCCN(CCc3cscn3)C2)nc(NC2CC2)n1 (centres undefined) |  | 15
3 | Cc1[nH]c2ccc(Cl)cc2c1CCN1CCCC(c2ccnc(NC3CC3)n2)C1 (centres undefined) | 135 | 
4 | Fc1cccc2c(CCN3CCCC(c4ccnc(NC5CC5)n4)C3)c[nH]c12 (centres undefined) | 28 | 
